Results as given in the supplement of paper PMC4862054.

Tests used:
MDA-MB-468 [1] = conditions: 72 h
Procedure, shortened: (§1)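 Viability of breast cancer cell lines was measured with CellTiter-Blue after 72 h of incubation on compound-loaded 384-well plates. Cells were seeded in 20 µl onto compound dissolved in 5 µl medium, and 2.5 µl reagent was added for 2 h at 37 °C before reading at 560/590 nm. EC50 was fitted from percent-inhibition dose-response data censored at the highest concentration, normalised per plate to vehicle and a positive kill control, with zero drug sensitivity score rows dropped.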

MDA-MB-436 [2] = conditions: 72 h
Procedure, shortened: as §1

MDA-MB-231 [3] = conditions: 72 h
Procedure, shortened: as §1

MDA-MB-453 [4] = experiment: normalised viability (% of control), CellTiter-Blue; higher = more viable cells (about 100 = DMSO control); conditions: incubation time: 72 h
Experimental: (§2)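 DSRT, CellTiter-Blue viability, 72 h incubation. Signal is normalised to DMSO and benzethonium chloride controls. Value is the normalised response at dose 9.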

CAL-148 [5] = experiment: as above; conditions: incubation time: 72 h
Experimental: as §2

DU-4475 [6] = experiment: as above; conditions: incubation time: 72 h
Experimental: as §2

HDQ-P1 [7] = experiment: as above; conditions: incubation time: 72 h
Experimental: as §2

CAL-85-1 [8] = experiment: as above; conditions: incubation time: 72 h
Experimental: as §2

CAL-51 = experiment: as above; conditions: incubation time: 72 h
Experimental: as §2

MDA-MB-453 [9] = experiment: normalised response (% of control), CellTiter-Glo; higher = more viable cells (100 = DMSO, 0 = benzethonium chloride kill control); conditions: incubation time: 72 h
Procedure, shortened: (§3)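 For each plate, 0.1 % DMSO was set to 100 and a positive kill control to 0. Breast cancer cell lines (20 µl suspension) were seeded into 384-well plates already holding compound at 5 concentrations in 10-fold steps over a 10,000-fold range chosen per compound, and incubated for 72 h. CellTox Green fluorescence at 485/520 nm was read before CellTiter-Glo luminescence, which followed 10 min at room temperature. Each value is the normalised signal at one concentration.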

HCC1937 [10] = experiment: as above; conditions: incubation time: 72 h
Procedure, shortened: as §3

MDA-MB-468 [11] = experiment: as above; conditions: incubation time: 72 h
Procedure, shortened: as §3

CAL-148 [12] = experiment: as above; conditions: incubation time: 72 h
Procedure, shortened: as §3

DU-4475 [13] = experiment: as above; conditions: incubation time: 72 h
Procedure, shortened: as §3

Hs578T [14] = experiment: as above; conditions: incubation time: 72 h
Procedure, shortened: as §3

MDA-MB-231 [15] = experiment: as above; conditions: incubation time: 72 h
Procedure, shortened: as §3

HDQ-P1 [16] = experiment: as above; conditions: incubation time: 72 h
Procedure, shortened: as §3

CAL-85-1 [17] = experiment: as above; conditions: incubation time: 72 h
Procedure, shortened: as §3

MDA-MB-436 [18] = experiment: as above; conditions: incubation time: 72 h
Procedure, shortened: as §3

BT-474 [19] = experiment: as above; conditions: incubation time: 72 h
Procedure, shortened: as §3

BT-549 = conditions: 72 h
Procedure, shortened: as §1

HCC1937 [20] = conditions: 72 h
Procedure, shortened: as §1

SK-BR-3 = conditions: 72 h
Procedure, shortened: as §1

Hs578T [21] = conditions: 72 h
Procedure, shortened: as §1

BT-474 [22] = conditions: 72 h
Procedure, shortened: as §1

| SMILES | EC50, CellTiter-Blue viability (MDA-MB-468 [1]) [nM] | EC50, CellTiter-Blue viability (MDA-MB-436 [2]) [nM] | EC50, CellTiter-Blue viability (MDA-MB-231 [3]) [nM] | normalised viability (MDA-MB-453 [4]) [%] | normalised viability (CAL-148 [5]) [%] | normalised viability (DU-4475 [6]) [%] | normalised viability (HDQ-P1 [7]) [%] | normalised viability (CAL-85-1 [8]) [%] | normalised viability (CAL-51) [%] | normalised response (MDA-MB-453 [9]) [%] | normalised response (HCC1937 [10]) [%] | normalised response (MDA-MB-468 [11]) [%] | normalised response (CAL-148 [12]) [%] | normalised response (DU-4475 [13]) [%] | normalised response (Hs578T [14]) [%] | normalised response (MDA-MB-231 [15]) [%] | normalised response (HDQ-P1 [16]) [%] | normalised response (CAL-85-1 [17]) [%] | normalised response (MDA-MB-436 [18]) [%] | normalised response (BT-474 [19]) [%] | EC50, CellTiter-Blue viability (BT-549) [nM] | EC50, CellTiter-Blue viability (HCC1937 [20]) [nM] | EC50, CellTiter-Blue viability (SK-BR-3) [nM] | EC50, CellTiter-Blue viability (Hs578T [21]) [nM] | EC50, CellTiter-Blue viability (BT-474 [22]) [nM] |
| --- | --- | --- | --- | --- | --- | --- | --- | --- | --- | --- | --- | --- | --- | --- | --- | --- | --- | --- | --- | --- | --- | --- | --- | --- | --- |
| CN(C)CCOc1ccc(/C(=C(/CCCl)c2ccccc2)c2ccccc2)cc1 [Toremifene] | 5600 | 2200 | – | – | – | – | – | – | – | – | – | – | – | – | – | – | – | – | – | – | – | – | – | – | – |
| S=P(N1CC1)(N1CC1)N1CC1 [Thio-TEPA] | – | – | 12000 | – | – | – | – | – | – | – | – | – | – | – | – | – | – | – | – | – | – | – | – | – | – |
| CC(C)C[C@@H](C(=O)N[C@H](C(=O)OC1CCCC1)c1ccccc1)[C@H](O)C(=O)NO [Tosedostat] (10000 nM) | – | – | – | 18.8 | 23.2 | 35.2 | 76.5 | 49.5 | 33.6 | 47.6 | 60.4 | 24.6 | 67.1 | 87.6 | 63.1 | 35.7 | 59.9 | 36.6 | 64.5 | 24.8 | – | – | – | – | – |
| NC(=O)c1ccc(I)c([N+](=O)[O-])c1 [Iniparib] (10000 nM) | – | – | – | 84.8 | 108 | 94 | 106 | 98 | 91.6 | 73.2 | 86.9 | 79 | 88.8 | 90.2 | 95.5 | 93.9 | 96.3 | 116 | 73.3 | 91 | – | – | – | – | – |
| O=C(Nc1cccnc1)N1CCC(Cc2cccc(Oc3ccc(C(F)(F)F)cn3)c2)CC1 [PF-3845] (10000 nM) | – | – | – | 38.4 | 98.2 | 108 | 128 | 93.4 | 65.5 | 74.7 | 75.3 | 49.1 | 88.4 | 85 | 92.1 | 89.1 | 95.2 | 89.7 | 72.6 | 93.3 | – | – | – | – | – |
| N#Cc1ccc(COC[C@H]2O[C@@H](n3c(NCc4ccc(Cl)c(Cl)c4)nc4c(N)ncnc43)[C@H](O)[C@@H]2O)cc1 | 6910 | 1390 | 2870 | – | – | – | – | – | – | – | – | – | – | – | – | – | – | – | – | – | 5190 | 619 | 6100 | – | – |
| O=C(Nc1cccnc1)N1CCC(Cc2cccc(Oc3ccc(C(F)(F)F)cn3)c2)CC1 [PF-3845] | > 10000 | – | – | – | – | – | – | – | – | – | – | – | – | – | – | – | – | – | – | – | 1550 | – | – | 2570 | 8600 |
| c1ccc2c(CCNc3ccc(Nc4ccncc4)cc3)c[nH]c2c1 [Serdemetan] | – | 540 | – | – | – | – | – | – | – | – | – | – | – | – | – | – | – | – | – | – | 1560 | – | – | 1540 | – |
| CN(C)CCOc1ccc(/C(=C(/CCCl)c2ccccc2)c2ccccc2)cc1 [Toremifene] (10000 nM) | – | – | – | 26.5 | 104 | 94.5 | 108 | 83.6 | 105 | 63.8 | 49.1 | 75.5 | 86.7 | 88 | 82.1 | 65.9 | 87.7 | 85.2 | 83.7 | 68.5 | – | – | – | – | – |
| CNC(=O)c1cc(Oc2ccc(NC(=O)Nc3ccc(Cl)c(C(F)(F)F)c3)c(F)c2)ccn1 [Regorafenib] (10000 nM) | – | – | – | 22 | 81.7 | 39.3 | 92.9 | 76.7 | 48.2 | 59.1 | 50.1 | 29.8 | 66.7 | 58.2 | 47 | 61.2 | 57.4 | 89.3 | 46.9 | 50 | – | – | – | – | – |
| Cc1ccc(NC(=O)c2ccc(CN3CCN(C)CC3)cc2)cc1Nc1nc(-c2cccnc2)cs1 [Masitinib] (10000 nM) | – | – | – | 24.4 | 74.5 | 119 | 67.6 | 70.4 | 80.4 | 55.6 | 65 | 36.6 | 97.7 | 99.4 | 96.6 | 51.5 | 75.5 | 64.4 | 51.7 | 33.2 | – | – | – | – | – |
| c1ccc2c(CCNc3ccc(Nc4ccncc4)cc3)c[nH]c2c1 [Serdemetan] (10000 nM) | – | – | – | 39.4 | 55.8 | -0.82 | 56.6 | 55.1 | 57 | 42.3 | 49.7 | 9.51 | 21.3 | 0.28 | 48.1 | 41 | 73.6 | 39.1 | 44.8 | 51.8 | – | – | – | – | – |
| CN(C)c1nc(N(C)C)nc(N(C)C)n1 [Altretamine] (10000 nM) | – | – | – | 18.7 | 63.4 | 94.7 | 111 | 46.5 | 72.6 | 108 | 100 | 104 | 106 | 107 | 105 | 102 | 97.8 | 108 | 107 | 98.7 | – | – | – | – | – |
